# Laboratory results reported in PMC9027957, “Interspecies Comparisons of the Effects of Potential Antiviral 3-Amidinophenylalanine Derivatives on Cytochrome P450 1A2 Isoenzyme” (Veterinary Sciences, 2022).
# Like-named read-outs stand apart in the source and are kept apart here.
# What was measured:
# CYP1A2 [1] = target: T1, CYP1A2 (Canis lupus familiaris, UniProt P56592); assay: CYP1A2 fluorometric activity assay in beagle hepatic microsomes; format: in vitro ADME; conditions: beagle, dog, 15 min, 50 µM
# T1 construct: endogenous in cells; host or cells: beagle hepatocytes
# T1 sequence (P56592 1-512): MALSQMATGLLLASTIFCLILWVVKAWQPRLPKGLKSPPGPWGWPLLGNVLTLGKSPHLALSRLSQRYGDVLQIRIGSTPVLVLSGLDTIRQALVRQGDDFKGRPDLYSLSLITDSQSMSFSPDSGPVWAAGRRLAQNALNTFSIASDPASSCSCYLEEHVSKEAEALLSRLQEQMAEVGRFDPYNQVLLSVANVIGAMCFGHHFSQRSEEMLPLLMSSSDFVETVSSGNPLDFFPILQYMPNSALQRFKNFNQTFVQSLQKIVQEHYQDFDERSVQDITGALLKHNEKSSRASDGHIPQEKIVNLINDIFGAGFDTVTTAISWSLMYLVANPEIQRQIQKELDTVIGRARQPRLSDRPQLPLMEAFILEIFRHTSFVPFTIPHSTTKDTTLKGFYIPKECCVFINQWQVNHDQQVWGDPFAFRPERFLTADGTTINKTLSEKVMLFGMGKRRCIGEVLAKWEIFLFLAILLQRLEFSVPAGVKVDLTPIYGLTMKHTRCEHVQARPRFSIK
# Procedure: (§1) The Biovision CYP assay (BioVision, Inc., Kampenhout, Belgium) utilizes a non-fluorescent CYP1A2 substrate capable of transforming into a highly fluorescent metabolite, which can be detected in the visible range. α-naphthoflavone was used as a CYP1A2 reference inhibitor at 6 µM during the experiments. Rat (Sprague–Dawley) and beagle (Gibco, Biocenter, Szeged, Hungary, protein concentration: 20 mg/mL) hepatic microsomal preparations were prepared separately by mixing 25 µL of the obtained rat or beagle microsomal suspension with 2425 µL assay buffer and with 50 µL NADPH generating system (100×). In the case of the cynomolgus monkey microsomal suspension (Primacyt, Schwerin, Germany, protein concentration: 5 mg/mL), the following volumes were applied: in addition to 100 µL of monkey microsomal suspension, the amount of assay buffer and the NADPH generating system were adjusted in order to ensure the original ratios of these components to reach a final volume of 2500 µL. Rat, beagle, and cynomolgus monkey microsomal suspension aliquots (50 µL) were treated with the protease inhibitor 20 µL, 0–1000 µM), the reference compound α-naphthoflavone (20 µL, 30 µM), or the assay buffer without test compounds (20 µL, background control) for 15 min at 37 °C. After incubation, 30 µL of the appropriate CYP1A2 substrate/NADP+ mixture was added to each well, yielding a final reaction volume of 100 µL/well. The protein contents of the obtained microsomes were analysed using bicinchoninic acid protein assay kit (Pierce BCA kit, Thermo Fisher Scientific, Waltham, MA, USA). […] The fluorescence intensities were measured with a fluorometer (Victor X2 2030, Perkin Elmer, Waltham, MA, USA), using λEx/Em = 406/468 nm.
# [2] = 60 min microsomal stability assay (UPLC-MS/MS), beagle liver microsomes; format: in vitro ADME; conditions: 50 µM
# Procedure: (§2) Rat, beagle (Gibco, Biocenter, Szeged, Hungary), and cynomolgus monkey (Primacyt, Schwerin, Germany) liver microsomes were exposed to inhibitors MI-432, MI-463, MI-482, or MI-1900 at 50 µM for 60 min. The final microsomal protein concentration in the suspension was 0.6 mg/mL in each case. The reaction buffer (100 mM phosphate buffer pH 7.4) also contained 1 mM nicotinamide adenine dinucleotide phosphate (NADPH), 5 mM MgCl2, 10 mM glucose-6-phosphate (G6P), and 2 IU/mL glucose-6-phosphate dehydrogenase (G6PD). The reaction was terminated by the addition of ice-cold acetonitrile (ACN) with the ratio of sample ACN volume = 1:2. The precipitated protein was removed by centrifugation at 10,000× g for 10 min, and the supernatants were used for subsequent analyses.
# (§3) The determination of all analytes was carried out using an UPLC/MS/MS system, which consisted of an HPLC apparatus (SCIEX ExionLC^TM UPLC, Framigham, MA, USA) and a SCIEX Qtrap 4500 triple-quadrupole mass spectrometer (Framigham, MA, USA) equipped with a SCIEX Turbo V electrospray ionization source. The HPLC columns used were LiChrospher RP Select B (125 × 4.0 mm, 5.0 μm, C8 stationary phase). Next, 0.1% trifluoroacetic acid in ultra-purified water (A) and acetonitrile (B) were used as mobile phases for chromatographic separations applying a gradient elution. The HPLC gradient program was the following: between 0 and 10 min, a ratio of 70% A and 30% B; from 10 to 20 min, linearly increasing to a ratio of 50% A and 50% B; from 20 to 21 min, maintained at a ratio of 50% A and 50% B; from 21 to 22 min, linearly decreasing back to a ratio of 70% A and 30% B; and between 22 min and 30 min, maintained at a ratio of 70% A and 30% B. The run time was 30 min, the column temperature was adjusted to 35 °C, and the flow rate was 1 mL/min.
# CYP1A2 [3] = target: T1, CYP1A2; format: cell-based; conditions: dog, 2 h
# Procedure: For the measurements of CYP1A2 activities, hepatocytes were grown on 24-well collagen-coated membrane inserts (Costar Transwell-PTFE membrane, 6.5 mm, pore size: 0.4 µm, Merck, Darmstadt, Germany). […] The determination of the CYP1A2 activities were performed using the P450-Glo CYP450 Assay (Promega, Madison, WI, USA) according to the manufacturer’s instructions.
# [4] = 60 min microsomal stability assay (UPLC-MS/MS), rat liver microsomes; format: in vitro ADME; conditions: 50 µM
# Procedure: as §2, §3
# CYP1A2 [5] = target: T2, CYP1A2 (Rattus norvegicus, UniProt P04799); assay: CYP1A2 fluorometric activity assay in rat hepatic microsomes; format: in vitro ADME, rat (Sprague–Dawley); design: Rat (Sprague–Dawley) and beagle (Gibco, Biocenter, Szeged, Hungary, protein concentration: 20 mg/mL) hepatic microsomal preparations; tissue Gibco, Biocenter, Szeged, Hungary; host or cells: liver (hepatic microsomes), Sprague-Dawley rat
# T2 sequence (P04799 1-513): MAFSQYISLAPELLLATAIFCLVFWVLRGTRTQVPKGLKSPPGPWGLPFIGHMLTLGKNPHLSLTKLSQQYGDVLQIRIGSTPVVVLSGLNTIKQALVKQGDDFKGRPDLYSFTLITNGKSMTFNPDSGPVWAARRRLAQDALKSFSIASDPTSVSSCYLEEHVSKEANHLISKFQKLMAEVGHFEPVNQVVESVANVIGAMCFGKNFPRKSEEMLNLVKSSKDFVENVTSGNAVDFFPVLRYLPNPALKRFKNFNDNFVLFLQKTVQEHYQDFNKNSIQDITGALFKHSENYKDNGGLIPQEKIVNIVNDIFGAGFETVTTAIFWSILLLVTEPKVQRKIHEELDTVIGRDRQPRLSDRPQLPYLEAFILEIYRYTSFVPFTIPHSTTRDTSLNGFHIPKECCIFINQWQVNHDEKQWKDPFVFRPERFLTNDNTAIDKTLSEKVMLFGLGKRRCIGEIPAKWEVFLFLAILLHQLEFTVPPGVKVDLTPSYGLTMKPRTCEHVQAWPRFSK
# Procedure: as §1
smiles,measurement,setting,value
N=C(N)c1cccc(C[C@H](NS(=O)(=O)c2cccc(-c3ccc(Cl)cc3Cl)c2)C(=O)N2CCC(CCN)CC2)c1 [MI-432],beagle hepatic microsomal CYP1A2 isoenzyme activity,CYP1A2 [1],reduced the activity of CYP1A2
same,depletion percentage of the parent compound,"[2]; beagle, dog, pH 7.4",23.8 ± 7%
same,CYP1A2 function in beagle hepatocytes,CYP1A2 [3]; 20 µM,significantly inhibited CYP1A2 function
same,CYP1A2 function in beagle hepatocytes,CYP1A2 [3]; 50 µM,significantly inhibited CYP1A2 function
same,depletion percentage of the parent compound,"[4]; Sprague-Dawley, rat, pH 7.4",28 ± 3.1%
same,rat hepatic microsomal CYP1A2 isoenzyme activity,"CYP1A2 [5]; Sprague-Dawley, rat, 15 min, 50 µM",did not inhibit CYP1A2 function
COc1ccc(-c2cccc(S(=O)(=O)N[C@@H](Cc3cccc(C(=N)N)c3)C(=O)N3CCN(C(=O)NC4CCCCC4)CC3)c2)c(OC)c1 [MI-1900],depletion percentage of the parent compound,"[2]; beagle microsomes, 0.6 mg/mL protein, mean ± SD (n = 3)",23.7 ± 11.1%
same,depletion percentage of the parent compound,"[4]; rat microsomes, 0.6 mg/mL protein, mean ± SD (n = 3)",30.7 ± 11.7%
same,rat hepatic microsomal CYP1A2 isoenzyme activity,"CYP1A2 [5]; inhibitors at 50 µM, 15 min at 37 °C, vs untreated control",suppressed
